Experimental data as given in PubChem BioAssay AID330 (DTP/NCI, 2004).
“And” between values parts separate entries of the source, which are not always exact repeats. Equal values may be shown once. Toxic doses and inconclusive results are not listed. The calls were made as follows: active = survival T/C of 150% or more; inactive = T/C below 125% in these data.

Tested on: P388 leukemia ip, CD2F1 mice, survival T/C
Test: NCI In Vivo Anticancer Drug Screen. Data for tumor model P388 Leukemia (intraperitoneal) in CD2F1 (CDF1) mice
Details: endpoint: median survival time, higher = longer survival
Procedure, shortened: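 Mice carrying the transplanted tumor received test compound or vehicle. Survival was recorded in each group, and the value is the treated-group measurement divided by that of the vehicle-treated control group.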

[1] = dose: 50.0 mg/kg/injection, schedule: Q01DX009 (ip), vehicle: saline
[2] = dose: 100.0 mg/kg/injection, schedule: Q01DX009 (ip), vehicle: saline
[3] = dose: 200.0 mg/kg/injection, schedule: Q01DX009 (ip), vehicle: saline
[4] = dose: 50.0 mg/kg/injection, schedule: Q01DX009 (ip), vehicle: Klucel (hydroxypropylcellulose) (HPC)
[5] = dose: 100.0 mg/kg/injection, schedule: Q01DX009 (ip), vehicle: Klucel (hydroxypropylcellulose) (HPC)
[6] = dose: 200.0 mg/kg/injection, schedule: Q01DX009 (ip), vehicle: Klucel (hydroxypropylcellulose) (HPC)
[7] = dose: 50.0 mg/kg/injection, schedule: Q01DX005 (ip), vehicle: Klucel (hydroxypropylcellulose) (HPC)
[8] = dose: 100.0 mg/kg/injection, schedule: Q01DX005 (ip), vehicle: Klucel (hydroxypropylcellulose) (HPC)
[9] = dose: 200.0 mg/kg/injection, schedule: Q01DX005 (ip), vehicle: Klucel (hydroxypropylcellulose) (HPC)
[10] = dose: 50.0 mg/kg/injection, schedule: Q01DX005 (ip), vehicle: saline
[11] = dose: 100.0 mg/kg/injection, schedule: Q01DX005 (ip), vehicle: saline
[12] = dose: 60.0 mg/kg/injection, schedule: Q01DX005 (ip), vehicle: Klucel (hydroxypropylcellulose) (HPC)
[13] = dose: 120.0 mg/kg/injection, schedule: Q01DX005 (ip), vehicle: Klucel (hydroxypropylcellulose) (HPC)
[14] = dose: 240.0 mg/kg/injection, schedule: Q01DX005 (ip), vehicle: Klucel (hydroxypropylcellulose) (HPC)
[15] = dose: 60.0 mg/kg/injection, schedule: Q01DX005 (ip), vehicle: saline with Tween-80
[16] = dose: 120.0 mg/kg/injection, schedule: Q01DX005 (ip), vehicle: saline with Tween-80

Measured: T/C

Cn1c2cc(=O)ccc2c2c3nc4ccccc4[nH]c3cc(O)c21
inactive: [1] 98 % of control and 100 % of control | [2] 95 % of control and 91 % of control | [3] 100 % of control and 104 % of control

N#CC1=C(N)Oc2c(c(-c3ccccc3)nn2-c2ccccc2)C1c1ccccc1 (stereo unspecified)
inactive: [4] 100 % of control | [5] 105 % of control | [6] 100 % of control

CCCC[As](CCCC)SC1OC(C2COC(C)(C)O2)C2OC(C)(C)OC12 (stereo unspecified)
inactive: dose: 0.78 mg/kg/injection, schedule: Q01DX009 (ip), vehicle: water 101 % of control | dose: 1.56 mg/kg/injection, schedule: Q01DX009 (ip), vehicle: water 117 % of control | dose: 3.13 mg/kg/injection, schedule: Q01DX009 (ip), vehicle: distilled water + Tween-80 122 % of control | dose: 3.13 mg/kg/injection, schedule: Q01DX009 (ip), vehicle: water 101 % of control | dose: 6.25 mg/kg/injection, schedule: Q01DX009 (ip), vehicle: distilled water + Tween-80 96 % of control | dose: 6.25 mg/kg/injection, schedule: Q01DX009 (ip), vehicle: water 111 % of control | dose: 12.5 mg/kg/injection, schedule: Q01DX009 (ip), vehicle: distilled water + Tween-80 123 % of control | dose: 25.0 mg/kg/injection, schedule: Q01DX009 (ip), vehicle: distilled water + Tween-80 88 % of control

COC(=O)c1ccc(=O)c2nc3/c(=C/O)c(O)cc(=O)c3[nH]c12
inactive: dose: 0.15 mg/kg/injection, schedule: Q04DX003 (ip), vehicle: saline 95 % of control | dose: 0.3 mg/kg/injection, schedule: Q01DX009 (ip), vehicle: saline with Tween-80 90 % of control | dose: 0.3 mg/kg/injection, schedule: Q04DX003 (ip), vehicle: saline 100 % of control | dose: 0.6 mg/kg/injection, schedule: Q04DX003 (ip), vehicle: saline 109 % of control

O=C(NC1CC1)C(Cl)Cl
inactive: [7] 103 % of control | [8] 99 % of control

CCC(C)C(NC(=O)OCC1c2ccccc2-c2ccccc21)C(=O)O (stereo unspecified)
inactive: [7] 100 % of control | [8] 100 % of control | [9] 104 % of control

CCCCCCCCCCCCCCCCCC[N+](C)(C)C
inactive: dose: 3.12 mg/kg/injection, schedule: Q01DX009 (ip), vehicle: saline 118 % of control

CC(=O)Nc1cc2c(=O)[nH]cnc2c([N+](=O)[O-])c1N(C)[N+](=O)[O-]
inactive: dose: 5.0 mg/kg/injection, schedule: Q01DX005 (ip), vehicle: other 101 % of control | dose: 10.0 mg/kg/injection, schedule: Q01DX005 (ip), vehicle: other 117 % of control | dose: 20.0 mg/kg/injection, schedule: Q01DX005 (ip), vehicle: other 109 % of control | dose: 40.0 mg/kg/injection, schedule: Q01DX005 (ip), vehicle: other 102 % of control

CC(=O)OCC#CCN1CCCCCC1
inactive: [10] 91 % of control | [11] 92 % of control

Clc1ccc2c(c1)[N+](=c1ccc3nc4cc(Cl)ccc4sc-3c1)c1ccccc1S2.[Cl][Cu][Cl]
inactive: [12] 95 % of control | [13] 91 % of control | [14] 88 % of control

CC(C)CNc1ncnc2c1cnn2C
inactive: [10] 94 % of control | [11] 112 % of control | dose: 200.0 mg/kg/injection, schedule: Q01DX005 (ip), vehicle: saline 115 % of control

CC1C2Cc3ccc(O)cc3C1(C)CCN2C (stereo unspecified)
inactive: [15] 92 % of control | [16] 100 % of control

C/C(=N\NC(=S)N1CCC(C)CC1)c1ncccn1
inactive: dose: 12.5 mg/kg/injection, schedule: Q04DX003 (ip), vehicle: Klucel (hydroxypropylcellulose) (HPC) 117 % of control | dose: 25.0 mg/kg/injection, schedule: Q04DX003 (ip), vehicle: Klucel (hydroxypropylcellulose) (HPC) 91 % of control

Cc1cc(C)n(-c2ccnc(N3CCOCC3)n2)n1
inactive: dose: 100.0 mg/kg/injection, schedule: Q01DX001 (ip), vehicle: saline 100 % of control | dose: 200.0 mg/kg/injection, schedule: Q01DX001 (ip), vehicle: saline 96 % of control | dose: 400.0 mg/kg/injection, schedule: Q01DX001 (ip), vehicle: saline 97 % of control

COc1cc2c(cc1C(CC(C)O)c1cc(OC)c(OC)c(OC)c1)OCO2 (stereo unspecified)
inactive: [15] 100 % of control | [16] 90 % of control | dose: 240.0 mg/kg/injection, schedule: Q01DX005 (ip), vehicle: saline with Tween-80 98 % of control

O=P(Oc1ccccc1)(Oc1ccccc1)C(Nc1ccc(C(F)(F)F)cc1)c1ccccc1 (stereo unspecified)
inactive: [4] 99 % of control | [5] 93 % of control | [6] 86 % of control

CC(C)C1[NH][Sn]2([NH]C(C(C)C)C(=O)[O]2)[O]C1=O (stereo unspecified)
inactive: [7] 97 % of control | [8] 106 % of control

O=S(=O)(N/N=C/c1cccc(Cl)c1)c1ccccc1
inactive: [12] 109 % of control | [13] 104 % of control | [14] 105 % of control

O=C1OCC2CC3C4C=CC(C4)C3C12 (stereo unspecified)
inactive: [7] 103 % of control | [8] 93 % of control

O=c1ncc2ccc([N+](=O)[O-])cc2[nH]1
inactive: dose: 12.5 mg/kg/injection, schedule: Q01DX005 (ip), vehicle: Klucel (hydroxypropylcellulose) (HPC) 108 % of control and 95 % of control and 98 % of control | dose: 25.0 mg/kg/injection, schedule: Q01DX005 (ip), vehicle: Klucel (hydroxypropylcellulose) (HPC) 102 % of control and 94 % of control and 98 % of control | [8] 112 % of control

COc1ccc(-c2csc(NC(=O)Nc3nc(-c4ccc(OC)cc4)cs3)n2)cc1
inactive: dose: 15.0 mg/kg/injection, schedule: Q01DX005 (ip), vehicle: saline with Tween-80 97 % of control | dose: 30.0 mg/kg/injection, schedule: Q01DX005 (ip), vehicle: saline with Tween-80 100 % of control | [15] 87 % of control and 91 % of control

CC1(C)N(O)C(c2cccnc2)=[N+]([O-])C1(C)C
inactive: [7] 104 % of control | [1] 97 % of control | [8] 101 % of control | [2] 94 % of control | [9] 103 % of control | [3] 102 % of control

CCn1c(Cl)c(/C=C2/N=C(c3ccccc3)OC2=O)c2ccccc21
inactive: dose: 25.0 mg/kg/injection, schedule: Q01DX001 (ip), vehicle: saline with Tween-80 95 % of control | dose: 50.0 mg/kg/injection, schedule: Q01DX001 (ip), vehicle: saline with Tween-80 86 % of control | dose: 100.0 mg/kg/injection, schedule: Q01DX001 (ip), vehicle: Klucel (hydroxypropylcellulose) (HPC) 92 % of control | dose: 400.0 mg/kg/injection, schedule: Q01DX001 (ip), vehicle: Klucel (hydroxypropylcellulose) (HPC) 86 % of control

C[S+](C)C
inactive: [2] 110 % of control | [3] 110 % of control | dose: 400.0 mg/kg/injection, schedule: Q01DX009 (ip), vehicle: saline 110 % of control

COC(=O)c1ccccc1N=C/C(Cl)=C(/Cl)C(=O)O
inactive: dose: 6.25 mg/kg/injection, schedule: Q01DX009 (ip), vehicle: Klucel (hydroxypropylcellulose) (HPC) 100 % of control and 110 % of control and 96 % of control | dose: 12.5 mg/kg/injection, schedule: Q01DX009 (ip), vehicle: Klucel (hydroxypropylcellulose) (HPC) 100 % of control and 111 % of control and 117 % of control | dose: 25.0 mg/kg/injection, schedule: Q01DX009 (ip), vehicle: Klucel (hydroxypropylcellulose) (HPC) 113 % of control and 118 % of control and 121 % of control | [4] 113 % of control and 116 % of control and 119 % of control

O=C1CSC(c2ccccc2F)N1c1nccs1 (stereo unspecified)
inactive: [7] 100 % of control | [8] 103 % of control | [9] 109 % of control

NS(=O)(=O)c1ccc(NC(=O)CCCCl)cc1
inactive: [4] 100 % of control | [5] 94 % of control | [6] 86 % of control

C/C=C(\C)C(=O)OC1C2C(C)=CC(=O)C(O)C2(C)C2C3(O)OCC24C1OC(=O)C(O)C4C(C)C3O (stereo unspecified)
active: dose: 2.5 mg/kg/injection, schedule: Q01DX005 (ip), vehicle: saline 154 % of control | dose: 7.5 mg/kg/injection, schedule: Q01DX005 (ip), vehicle: Klucel (hydroxypropylcellulose) (HPC) 175 % of control | dose: 10.0 mg/kg/injection, schedule: Q01DX005 (ip), vehicle: saline 154 % of control | dose: 15.0 mg/kg/injection, schedule: Q01DX005 (ip), vehicle: Klucel (hydroxypropylcellulose) (HPC) 180 % of control | dose: 15.0 mg/kg/injection, schedule: Q01DX005 (ip), vehicle: saline 154 % of control | dose: 30.0 mg/kg/injection, schedule: Q01DX005 (ip), vehicle: Klucel (hydroxypropylcellulose) (HPC) 189 % of control
